Reference: patent publication US20230131899A1, “INHIBITORS OF MICROBIALLY INDUCED AMYLOID” (Axial Therapeutics, Inc., priority 2020, published 2023)
Read-outs that look alike come from different tables or passages of the source.

Test system: CsgA gene expression (csgBAC promoter-GFP reporter) in E. coli UTI89
Test: In vitro live cell fluorescent reporter assay of CsgA transcription (Reporter Assay)
Format: cell-based
Conditions: Escherichia coli
Method in brief: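 Compounds at 0.14–100 μM (1% DMSO final) incubated 20 h at 27 °C in YESCA broth with UTI89 carrying a single-copy GFP reporter under the csgBAC intergenic promoter region, inoculum OD600 0.003. Fluorescence normalized to vehicle wells gave IC50 and 50%-of-vehicle concentration; OD600 reduction >10% flagged growth impact.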

[1] = read-out: Reporter Assay Abs IC50 (activity range), median Abs IC50 in the CsgA reporter assay, class symbol
[2] = read-out: Reporter Assay Abs IC50 (μM), median Abs IC50 in the CsgA reporter assay, N/A = maximum expression reduction is <50% of control

Compound `O=C(O)C1CN(CCCCO)S(=O)(=O)c2c(-c3cccc(C(F)(F)F)c3)c(Cc3cccc4ccccc34)c(NC3CCCC3)c(=O)n21` (centres unmarked) [Compound 121, 7-(cyclopentylamino)-2-(4-hydroxybutyl)-8-(naphthalen-1-ylmethyl)-6-oxo-9-(3-(trifluoromethyl)phenyl)-3,4-dihydro-2H,6H-pyrido[1,2-e][1,2,5]thiadiazine-4-carboxylic acid 1,1-dioxide] has an IC50 [1] of 1.3 to 4.5 µM and an IC50 [2] of 2 µM.
`C=CCCN1CC(C(=O)O)n2c(c(-c3cccc(C(F)(F)F)c3)c(Cc3cccc4ccccc34)cc2=O)S1(=O)=O` (centres unmarked) [Compound 024, 2-(but-3-en-1-yl)-8-(naphthalen-1-ylmethyl)-6-oxo-9-(3-(trifluoromethyl)phenyl)-3,4-dihydro-2H,6H-pyrido[1,2-e][1,2,5]thiadiazine-4-carboxylic acid 1,1-dioxide] gave an IC50 [1] of 4.6 to 10 µM and an IC50 [2] of 9.9 µM.
With `O=C(O)C1CSc2c(-c3cccc(C(F)(F)F)c3)c(Cc3cccc4ccccc34)cc(=O)n21` (racemic) [Compound 011, 7-(naphthalen-1-ylmethyl)-5-oxo-8-(3-(trifluoromethyl)phenyl)-2,3-dihydro-5H-thiazolo[3,2-a]pyridine-3-carboxylic acid] the IC50 [1] was 4.6 to 10 µM and the IC50 [2] was 5.8 µM.
For `CCN1CC(C(=O)O)n2c(c(-c3cccc(C(F)(F)F)c3)c(Cc3cccc4ccccc34)cc2=O)S1(=O)=O` (single isomer, unassigned) [Compound 015a, 2-ethyl-8-(naphthalen-1-ylmethyl)-6-oxo-9-(3-(trifluoromethyl)phenyl)-3,4-dihydro-2H,6H-pyrido[1,2-e][1,2,5]thiadiazine-4-carboxylic acid 1,1-dioxide], the IC50 [1] was > 10 µM and the IC50 [2] was 21.7 µM.
Compound `Nc1c(Cc2cccc3ccccc23)c(-c2cccc(C(F)(F)F)c2)c2n(c1=O)C(C(=O)O)CS2` (racemic) [Compound 020, 6-amino-7-(naphthalen-1-ylmethyl)-5-oxo-8-(3-(trifluoromethyl)phenyl)-2,3-dihydro-5H-thiazolo[3,2-a]pyridine-3-carboxylic acid] has an IC50 [1] of 1.3 to 4.5 µM and an IC50 [2] of 3.9 µM.
`O=C(O)C1CN(CCCO)S(=O)(=O)c2c(-c3cccc(C(F)(F)F)c3)c(Cc3cccc4ccccc34)c(NC3CCCC3)c(=O)n21` (centres unmarked) [Compound 120, 7-(cyclopentylamino)-2-(3-hydroxypropyl)-8-(naphthalen-1-ylmethyl)-6-oxo-9-(3-(trifluoromethyl)phenyl)-3,4-dihydro-2H,6H-pyrido[1,2-e][1,2,5]thiadiazine-4-carboxylic acid 1,1-dioxide] gave an IC50 [1] of 1.3 to 4.5 µM and an IC50 [2] of 3.1 µM.
`CCc1c(Cc2cccc3ccccc23)c(-c2cccc(C(F)(F)F)c2)c2n(c1=O)C(C(=O)O)CN(C1CCCCC1)S2(=O)=O` (centres unmarked) [Compound 116, 2-cyclohexyl-7-ethyl-8-(naphthalen-1-ylmethyl)-6-oxo-9-(3-(trifluoromethyl)phenyl)-3,4-dihydro-2H,6H-pyrido[1,2-e][1,2,5]thiadiazine-4-carboxylic acid 1,1-dioxide] was tested, and the IC50 [1] was 1.3 to 4.5 µM and the IC50 [2] was 1.5 µM.
Compound `CN(C)Cc1c(Cc2cccc3ccccc23)c(-c2cccc(C(F)(F)F)c2)c2n(c1=O)C(C(=O)O)CS2` (centres unmarked) [Compound 075, 6-((dimethylamino)methyl)-7-(naphthalen-1-ylmethyl)-5-oxo-8-(3-(trifluoromethyl)phenyl)-2,3-dihydro-5H-thiazolo[3,2-a]pyridine-3-carboxylic acid] has an IC50 [1] of 4.6 to 10 µM and an IC50 [2] of 5.6 µM.
`Nc1c(Cc2cccc3ccccc23)c(-c2cccc(C(F)(F)F)c2)c2n(c1=O)C(C(=O)O)CS2(=O)=O` (centres unmarked) [Compound 023, 6-amino-7-(naphthalen-1-ylmethyl)-5-oxo-8-(3-(trifluoromethyl)phenyl)-2,3-dihydro-5H-thiazolo[3,2-a]pyridine-3-carboxylic acid 1,1-dioxide] was tested, and the IC50 [1] was > 10 µM and the IC50 [2] was 19.6 µM.
Work on `COc1ccc(CN2C[C@@H](C(=O)O)n3c(c(-c4cccc(C(F)(F)F)c4)c(Cc4cccc5ccccc45)cc3=O)S2(=O)=O)cc1` (single isomer, unassigned) [Compound 026a] yielded an IC50 [1] of 1.3 to 4.5 µM and an IC50 [2] of 2 µM.
